Experimental data as given in patent publication US20120107820A1, “Multiplexed Quantitative PCR End Point Analysis of Nucleic Acid Targets” (MASSACHUSETTS INSTITUTE OF TECHNOLOGY, priority 2009, published 2012).

What was measured:
[1] = test system: HL60 (human promyelocytic leukemia) cells; test: Gene expression profiling of tretinoin-treated HL60 cells, LMA RT-PCR amplicons detected on Luminex microspheres; type: cell-based; conditions: for Raw Signal (AU) / Differential Expression: log(tret/DMSO): HL60 cells; for Raw Signal (AU): 1 μmol/l tretinoin, five days; for Normalized Signal: normalized to LUA95, tretinoin-treated HL60 cells; for Differential Expression: log(tret/DMSO): tretinoin vs DMSO
Experimental: (§1) Gene expression profiling experiment were conducted to detect and quantify the effects of drug treatment on expression of certain target mRNAs in a complex sample using hydrogel particles. Applicants repeated previously reported multiplex ligation-mediated PCR experiments that used Luminex FlexMAP (Luminex, Austin, Tex., USA) optically addressed barcoded microspheres in side by side experiments with hydrogel particles using an endogenous reference gene for quantification. The methods used are described in Peck et al. A Method for High-Throughput Gene Expression Signature Analysis, Genome Biology, 7:R61, 2006; details are set forth in Example 3. Although the Peck et al experiments were done with traditional RT-PCR and hybridization in multiple steps, the experiments are amendable to embodiments of the present methods for one chamber quantitative multiplexed end point PCR.
(§2) HL60 (human promyelocytic leukemia) cells were cultured in the presence of either […] in DMSO or DMSO alone, and quantification was based on comparison of target mRNA expression to the reference gene […]. […] Upstream and downstream probe pairs designed for each of the targets by Peck were used to generate the amplicons. Unique upstream biotin-conjugated primers for each target included a 24 nucleotide bar code sequence for each of the five mRNAs. Applicants designed probes for immobilization on encoded hydrogel particles that were complementary to the 24 nucleotide bar code on each unique upstream primer to enable capture of the amplicons on encoded hydrogel particles. Methods for making the particles are described in Example 3. Each encoded hydrogel particle was made with multiple probe regions directed to each of the five mRNAs (four targets and one reference gene) and a control, respectively.
(§3) Total RNA was isolated from the HL60 cells, reverse-transcribed and amplified using a simple RT-PCR method. In order to compare the sensitivity of the encoded hydrogel particles to the Luminex magnetic particles, the exact protocol described by Peck et al. was followed. There were 39 cycles in which: there was an initial denaturation at 92° C. for 9 minutes, followed by denaturation at 92° C. for 30 s, followed by annealing at 60° C. for 30 s, extension at 72° C. for 30 s for 39 cycles, and a final extension at 72° C. for 5 minutes. After a final denaturation at 95° C. for two minutes hybridization was carried out at 45° C. for 60 minutes. Note that in the preferred embodiments of the present invention the hybridization temperature is from 2-15° C. […] than the primer annealing temperature to optimize specificity. By contrast, the hybridization temperature (45° C.) used by Peck et al. was 15° C. lower than the annealing temperature.
(§4) After hybridization, the respective Luminex and hydrogel particles were rinsed, incubated with streptavidin-phycoerythrin to fluorescently label the primers, rinsed again, and imaged for fluorescence. The fluorescent signals obtained were quantified and normalized against the internal reference (LUA95) after subtracting the background signal from the control region on each particle (CTL).
(§5) Similar to the protocol described in Peck et al., Genome Biology, 7:R61, 2006, HL60 (human promyelocytic leukemia) cells were cultured in RPMI supplemented with 10% fetal bovine serum and antibiotics. Cells were treated with 1 μmol/l tretinoin (all-trans retinoic acid; Sigma-Aldrich, St Louis, Mo., USA) in dimethyl sulfoxide (DMSO; final concentration 0.1%) or DMSO alone for five days. Total RNA was isolated from bulk cultures with TRIzol Reagent (Invitrogen, Carlsbad, Calif., USA), in accordance with the manufacturer's directions. For the classification exercise, microtiter plate cultures were treated with 200 nmol/l tretinoin or DMSO for two days to mimic the submaximal signatures likely to be encountered in a small molecule screen, and were and prepared for mRNA capture by the addition of Lysis Buffer (RNAture, Irvine, Calif., USA). […]

[2] = test system: HL60 (human promyelocytic leukemia) cells; test: Gene expression profiling of tretinoin-treated HL60 cells, LMA RT-PCR amplicons detected on encoded hydrogel particles; type: cell-based; conditions: for Raw Signal (AU) / Differential Expression: log(tret/DMSO): HL60 cells; for Raw Signal (AU): 1 μmol/l tretinoin, five days; for Normalized Signal: normalized to LUA95, tretinoin-treated HL60 cells; for Differential Expression: log(tret/DMSO): tretinoin vs DMSO
Experimental: as §1, §2, §3, §4, §5

[3] = LUA95 (GAPDH3 internal reference, NM_002046)

CC1=C(/C=C/C(C)=C/C=C/C(C)=C/C(=O)O)C(C)(C)CCC1 [tretinoin]
Raw Signal (AU) ([1]; LUA7 mRNA (NM_000962)): 389.3 AU
Normalized Signal ([1]; LUA7 mRNA (NM_000962)): 0.222
Differential Expression: log(tret/DMSO) ([1]; LUA7 mRNA (NM_000962)): 0.785
Raw Signal (AU) ([1]; LUA27 mRNA (NM_006432)): 775.5 AU
Normalized Signal ([1]; LUA27 mRNA (NM_006432)): 0.442
Differential Expression: log(tret/DMSO) ([1]; LUA27 mRNA (NM_006432)): 0.871
Raw Signal (AU) ([1]; LUA59 mRNA (NM_004095)): 100.3 AU
Normalized Signal ([1]; LUA59 mRNA (NM_004095)): 0.057
Differential Expression: log(tret/DMSO) ([1]; LUA59 mRNA (NM_004095)): −0.576
Raw Signal (AU) ([1]; LUA68 mRNA (NM_003132)): 178.0 AU
Normalized Signal ([1]; LUA68 mRNA (NM_003132)): 0.101
Differential Expression: log(tret/DMSO) ([1]; LUA68 mRNA (NM_003132)): −0.619
Raw Signal (AU) [1, 3]: 1754.4 AU
Raw Signal (AU) ([2]; LUA7 mRNA (NM_000962)): 7.44 AU
Normalized Signal ([2]; LUA7 mRNA (NM_000962)): 0.084
Differential Expression: log(tret/DMSO) ([2]; LUA7 mRNA (NM_000962)): 0.486
Raw Signal (AU) ([2]; LUA27 mRNA (NM_006432)): 14.64 AU
Normalized Signal ([2]; LUA27 mRNA (NM_006432)): 0.166
Differential Expression: log(tret/DMSO) ([2]; LUA27 mRNA (NM_006432)): 0.818
Raw Signal (AU) ([2]; LUA59 mRNA (NM_004095)): 1.14 AU
Normalized Signal ([2]; LUA59 mRNA (NM_004095)): 0.013
Differential Expression: log(tret/DMSO) ([2]; LUA59 mRNA (NM_004095)): −0.841
Raw Signal (AU) ([2]; LUA68 mRNA (NM_003132)): 2.99 AU
Normalized Signal ([2]; LUA68 mRNA (NM_003132)): 0.034
Differential Expression: log(tret/DMSO) ([2]; LUA68 mRNA (NM_003132)): −0.822
Raw Signal (AU) [2, 3]: 88.45 AU
